{"source": "patent US20230013402A1", "about": "“REGENERATING FUNCTIONS AND PHENOTYPES OF CONNECTIVE TISSUE THROUGH NPAS2 SUPPRESSION” (The Regents of the University of California, priority 2019, published 2023)", "key": {"[1]": {"system": "ligature-induced periodontitis", "test": "Modified mouse ligature-induced periodontitis model (ligature removed at Day 14, evaluation at D28)", "type": "in vivo", "settings": "topical to palatal gingiva once a week, listed as Dwn1", "from_the_text": "FIGS. 12A-12H show the effect of Dwn1 in the modified ligature-induced periodontitis in mice.\nThe selected highest hit compound Dwn1 (Reserpine) of Example 2 was applied to the well established ligature-induced periodontitis model with modification. After periodontitis was established at Day 14, the ligature was revoved from mouse molar mimicking non-invasive periodontits treatment: scaling and root planing (SRP) (FIGS. 12A-12D). Dwn1 was formulated in ABR LLC's propritery trans-epithelial deformable nano-scale vesicle (DNV) (57) and topically adminstered to the palatal gingival tissue once a week (FIG. 12E). […] The in vivo regenerative efficacy of Dwn1 (Reserpine) was strongly indicated.\nFrom FDA Approved Drug Library (1120 compounds) and LOPAC Library (1280 compounds), a list of chemical compounds that modulated Npas2-LacZ expression was identified. […] Dwn1 was formulated for topical application to palatal gingiva. After 14 days of periodontitis induction, the ligature was removed and Dwn1 was topically applied to the palatal gingiva once a week (FIG. 16A)."}, "[2]": {"system": "human skin fibroblasts", "test": "High-throughput cell migration assay (Oris Pro Cell Migration Assay plate) / standardized viability", "type": "cell-based", "settings": "Table 1; HTS of FDA Drug Library", "from_the_text": "(§1) Mouse MSC carrying Npas2-LacZ reporter gene, as described by Hassan N, et al., PLoS One. 2017; 12(8):e0183359, which is incorporated by reference herein in its entirety, was immortalized using SV40 in order to accommodate a large-scale HTS. […] This cell system was used to screen FDA Approved Drug Library (1120 compounds). The same library was also screened for cell viability by Calcein AM Hoechst 33342 staining Cell migration assays using the Oris™ Pro Cell Migration Assay plate, as described by Joy M E et al., PloS one. 2014; 9(2):e88350, which is incorporated by reference herein in its entirety, was used for a high-throughput migration assay using human skin fibroblasts\n(§2) The combined Z score was used to identify hit compounds (Table 1)."}, "[3]": {"system": "murine dermal fibroblasts", "test": "Collagen synthesis by picrosirius red staining", "type": "cell-based, mouse", "settings": "day 7; 1 μM or 10 μM; vs control and 50 μg AA", "description": "The effects of two different concentrations of Dwn1 (1 μM or 10 μM) on collagen synthesis in murine dermal fibroblast in vitro were examined Murine dermal fibroblasts were seeded into 24-well plates and cultured at 80%-90% confluency in medium supplemented with ascorbic acid (50 μg/mL) for 1, 3, and 7 days. The cells were then fixed with 10% neutral buffered formalin and stained with Picrosirius red (PolyScience, Niles, Ill.) for visualizing the collagen. AA: 1-ascorbic acid. OD: optical density. CTRL: cell treated with control medium without AA. […] (FIG. 35A) The absorption value was read in a spectrophotometer at 550 nm with a plate reader ([…] H1 plate reader) and compared by one-way ANOVA with the post hoc Holm test."}, "[4]": {"system": "fibroblasts", "test": "In vitro wound healing: scratch fibroblast migration and collagen gel contraction", "type": "cell-based, mouse", "settings": "listed as Dwn1", "description": "The in vitro wound healing ability of Dwn1 was tested using a previously described method.\nFibroblasts were seeded into a 6-well plate and were synchronized as above. After 2 hr, scratch lines were created with a 20 μL plastic pipette and were washed with medium (n=5 per group). These scratched areas were captured by time-lapse photomicrography every hour from 0 to 24 hr. The number of migrated cells into the scratched area was counted at 12 and 24 hr and compared by one-way ANOVA with post hoc Holm test.\nThe floating collagen gel contraction assay was performed following the previously established protocol with some modifications (Ngo et al., 2006). A 500 μL aliquot of collagen gel mixture (Collagen Type I, Corning, Manassas, Va.) containing fibroblasts (50,000 cells) was applied to a 24-well plate (n=5 in each group) and placed at room temperature for 20 min. The solidified gels were transferred to a 100 mm diameter dish and cultured (37_C, 5% CO2 in a humidified incubator). The gel images were scanned by a scanner at 0, 6, 12, 24, 48, and 72 hr. The collagen gel area at each time point was measured (NIH ImageJ ver.1.51) and compared by two-way ANOVA, followed by the Tukey test at each time point.\nAs described herein, a small molecule inhibitor of Neuronal PAS domain 2 (Npas2), Dwn1, improves wound healing and minimizes scarring."}, "[5]": {"system": "Npas2-LacZ reporter gene (Npas2 expression)", "test": "High throughput screening of FDA Approved Drug Library for Npas2-LacZ reporter expression", "type": "cell-based, mouse", "settings": "Table 1", "from_the_text": "as §1, §2"}, "[6]": {"system": "skin split wound", "test": "Skin split (linear) wound/scar model with suture", "type": "in vivo, mouse", "settings": "Dwn1 in 10% DMSO with suture vs suture only and suture plus vehicle", "from_the_text": "To test in vivo wound healing using Dwn1, a 1.5 by 10 millimeter skin split model was created with a suture in the middle and three groups were designed. This model is similar to a clinical situation of a skin wound. When the skin was sutured only, visible wound healing was not effective. A suture and vehicle control with 10% DMSO, in the clinical observation, wound healing was visibly better than suture only. It is hypothesized that the moisture of vehicle may improve wound healing.\nMasson trichrome staining was used to stain collagen deposition blue. Thick blue collagen deposition was found not only in granulation tissue but also in the peripheral wound. The histological staining for the vehicle control with 10% DMSO, was similar to control. Thick collagen deposition was observed.\nVertical wounds (10×1.5 mm) were made on both left and right sides of the back of a mouse with a double-bladed scalpel. One ligation was performed at the center of the wound with 5-0 nylon suture. (FIG. 33A) Visual Analogue Scale (VAS) was scored everyday postoperatively until postoperative day 7 using gross images of the wounds/scars (FIG. 33A), and postoperative gross images of the wounds/scars were measured with a ruler. […] (FIG. 33D) Scar Index was evaluated using HE stained slices. (FIG. 33E) The % area of fibrous tissue was evaluated using MT stained slices. […]"}, "[7]": {"system": "Npas2-LacZ expression", "test": "Titration assay: effective concentration by LacZ expression in MSC Npas2-LacZ", "type": "cell-based, mouse", "settings": "serial dilution 100 μM to 0.2 nM", "description": "Dwn1 was serially diluted from 100 μM to 0.2 nM and applied to MSC Npas2-LacZ. Effective concentration (EC) was determined by LacZ expression and inhibitory concentration (IC) was determined by cell viability using Calcein AM/Hoechst 33342 staining DwnC and Dwn1 are both Reserpine.\nDwn1 was identical to the previously identified DwnC compound from the LOPAC library. Dwn1 compound (Reserpine) was selected for serial dilution analysis. […] Dwn1 was used for preliminary in vitro and in vivo studies described below. Additional compounds suppressing Npas2 were identified (Table 2).\nDwn1 was serially diluted from 100 μM to 0.2 nM and applied to MSC Npas2-LacZ. EC was determined by LacZ expression and IC was determined by cell viability using Calcein AM/Hoechst 33342 staining."}}, "note": "Entries after “also recorded” stand apart in the source; their conditions may differ.", "data": [{"smiles": "COC(=O)[C@H]1[C@H]2C[C@@H]3c4[nH]c5cc(OC)ccc5c4CCN3C[C@H]2C[C@@H](OC(=O)c2cc(OC)c(OC)c(OC)c2)[C@@H]1OC", "note": "[Reserpine]", "values": [{"measurement": "Gingival epithelium / gingival defect", "setting": "[1]", "value": "normalized gingival epithelium; also recorded: less visible"}, {"measurement": "Alveolar bone regeneration (microCT bone height)", "setting": "[1]; palatal side", "value": "increased bone height; also recorded: Alveolar bone regeneration was demonstrated; also recorded: alveolar bone loss was attenuated; also recorded: significant alveolar bone regeneration"}, {"measurement": "Gingival/periodontal collagen with Sharpey's fibers", "setting": "[1]; picrosirius red", "value": "gingival/PDL connective tissue reconstruction; also recorded: appeared to be reconstructed; also recorded: normalized Sirius red stained gingival collagen arrangement; also recorded: collagen fibers were reorganized"}, {"measurement": "Migration (standardized viability) Z Score", "setting": "[2]", "value": 4.19}, {"measurement": "Picrosirius red staining (collagen fiber formation and accumulation)", "setting": "[3]", "value": "increase of a positive reaction"}, {"measurement": "Collagen gel contraction", "setting": "[4]", "value": "accelerates"}, {"measurement": "Fibroblast migration in scratch wound healing assay", "setting": "[4]", "value": "accelerates"}, {"measurement": "NPAS2 Z Score", "setting": "[5]; HTS of FDA Drug Library", "value": "−2.57"}, {"measurement": "NPAS Z × ViabilityZ", "setting": "[5]; combined Z score (product)", "value": "−10.77"}, {"measurement": "Collagen deposition (Masson trichrome staining)", "setting": "[6]", "value": "decreased excessive collage deposition; also recorded: very small area of collagen deposition"}, {"measurement": "Split wound healing / scarring", "setting": "[6]", "value": "improved split wound healing with minimal scarring; also recorded: best wound healing"}, {"measurement": "Effective concentration (EC)", "setting": "[7]", "value": "0.5 to 10", "unit": "µM"}]}]}
